Results: patent US11976072B2, “Diacylglycerol kinase modulating compounds” (priority 2021, dated 2024)

How the values were obtained:
human DGKα = human DGKα (Homo sapiens, UniProt P23743); assay: DGKα Biochemical Activity Assay (ADP-Glo); details: recombinant DGKα 1 nM, 100 μM ATP, 18:1 DAG/POPS/octylglucoside micelles, 1 hour at 25° C.; geometric mean; read-out: HTBS DGKa 1X ATP KM IC50;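 also: luminescent detection of ADP produced as DGKα phosphorylates DAG to phosphatidic acid, IC50 from four-parameter nonlinear curve fit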
Excerpt: Alternatively, the enzymatic activity of human DGKα was monitored in a biochemical assay in the presence or absence of compounds and using micelles containing 18:1 Diacylglycerol (DAG), 16:0-18:1 PS (POPS) and Octylglucoside as substrate. DGKα activity led to conversion of DAG and ATP to Phosphatidic Acid (PA) and ADP. Levels of ADP were monitored by bioluminescence using the ADP-Glo Kinase Assay (Promega) and were indicative of DGKα activity.
Recombinant DGKα (Carna Biosciences) in assay buffer (5 μL in 50 mM MOPS [3-(N-morpholino) propanesulfonic acid], pH 7.2; 0.0025% Triton X-100; 1 mM dithiothreitol; 5 mM MgCl2, 200 μM ATP) was added to the compound-containing plate and was incubated for 15 minutes at 25° C. […] The reaction mixture was incubated at 25° C. for 1 hour. ADP-Glo Reagent (10 μL, 10 mM Mg added) provided by the kit was added to each well and incubated at 25° C. for 40 minutes. Then, 20 μL of Kinase Detection Reagent was added and incubated at 25° C. for 40 minutes. Luciferase activity of each well was measured via luminescence on an Envision plate reader (PerkinElmer).
Least squares curve fittings were performed using a four-parameter variable slope nonlinear regression model. […] IC50 values from multiple experiments were averaged by geometric mean and the standard deviation was calculated.

[1] = system: Jurkat NFκB-luciferase cells; assay: Jurkat NFκB-Luciferase Assay; format: cell-based; details: Homo sapiens; Jurkat NFκB-luciferase cells activated with anti-CD3 antibody (OKT3), 2.5 hrs at 37° C.; geometric mean; read-out: DGK NFKb Luciferase EC50
In short: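 Jurkat NFκB-luciferase reporter cells at 1 million cells/ml in RPMI with 10% FBS were added to antibody-coated, compound-containing wells. Luciferase activity read by One-Glo Ex luminescence 7 minutes after reagent addition.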

Sequence of human DGKα (P23743 whole entry): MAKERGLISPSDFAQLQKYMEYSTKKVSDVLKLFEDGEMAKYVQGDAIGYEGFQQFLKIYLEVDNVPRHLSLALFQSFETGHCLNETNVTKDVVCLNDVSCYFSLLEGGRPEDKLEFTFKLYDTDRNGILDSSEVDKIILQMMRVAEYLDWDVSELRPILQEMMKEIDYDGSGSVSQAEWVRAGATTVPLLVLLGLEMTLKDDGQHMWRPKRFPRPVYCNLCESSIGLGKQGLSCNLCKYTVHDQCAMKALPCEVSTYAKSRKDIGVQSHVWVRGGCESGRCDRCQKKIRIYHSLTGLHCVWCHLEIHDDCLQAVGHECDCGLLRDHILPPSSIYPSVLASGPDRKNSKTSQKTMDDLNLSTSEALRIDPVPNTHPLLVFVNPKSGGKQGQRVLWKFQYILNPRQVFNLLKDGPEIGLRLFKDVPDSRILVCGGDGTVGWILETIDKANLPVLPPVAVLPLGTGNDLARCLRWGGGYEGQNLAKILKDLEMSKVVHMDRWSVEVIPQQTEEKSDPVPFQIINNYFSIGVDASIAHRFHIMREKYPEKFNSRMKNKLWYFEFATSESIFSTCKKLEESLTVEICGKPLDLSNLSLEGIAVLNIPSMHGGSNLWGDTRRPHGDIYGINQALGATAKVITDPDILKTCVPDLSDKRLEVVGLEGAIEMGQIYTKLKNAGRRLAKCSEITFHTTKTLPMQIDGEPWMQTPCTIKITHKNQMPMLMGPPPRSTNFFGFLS

Row | SMILES | IC50 (human DGKα) [nM] | EC50 [1] [nM]
1 | Cc1nnc2nc(N(CC(F)F)c3ccnc(C#CC4(C(F)(F)F)CC4)c3)c3c(F)c(F)ccc3n12 [Example 92, N-(2,2-difluoroethyl)-6,7-difluoro-1-methyl-N-(2-((1-(trifluoromethyl)cyclopropyl)ethynyl)pyridin-4-yl)-[1,2,4]triazolo[4,3-a]quinazolin-5-amine] | 13.8 | 5.3
2 | CC(C)(C#Cc1cc(N(CC(F)F)c2nc3nncn3c3ccc(F)c(F)c23)ccn1)C(F)(F)F [Example 93, N-(2,2-difluoroethyl)-6,7-difluoro-N-(2-(4,4,4-trifluoro-3,3-dimethylbut-1-yn-1-yl)pyridin-4-yl)-[1,2,4]triazolo[4,3-a]quinazolin-5-amine] | 8.14 | 2.63
3 | CC1(C#Cc2cc(N(CC(F)F)c3nc4nncn4c4ccc(F)c(F)c34)ccn2)CC1 [Example 94, N-(2,2-difluoroethyl)-6,7-difluoro-N-(2-((1-methylcyclopropyl)ethynyl)pyridin-4-yl)-[1,2,4]triazolo[4,3-a]quinazolin-5-amine] | 4.3 | 2.33
4 | Fc1ccc2c(c(N(CC(F)F)c3ccnc(C#CC4(C(F)(F)F)CC4)c3)nc3nncn32)c1F [Example 95, N-(2,2-difluoroethyl)-6,7-difluoro-N-(2-((1-(trifluoromethyl)cyclopropyl)ethynyl)pyridin-4-yl)-[1,2,4]triazolo[4,3-a]quinazolin-5-amine] | 7.69 | 2.77
5 | Cc1nnc2nc(N(CC(F)F)c3ccnc(C#CC4(C)CC4)c3)c3cc(F)ccc3n12 [Example 96, N-(2,2-difluoroethyl)-7-fluoro-1-methyl-N-(2-((1-methylcyclopropyl)ethynyl)pyridin-4-yl)-[1,2,4]triazolo[4,3-a]quinazolin-5-amine] | 6.22 | 5.1
6 | CC(C)(C#Cc1nccc(N(CC(F)F)c2nc3nncn3c3ccc(F)cc23)c1F)C(F)(F)F [Example 97, N-(2,2-difluoroethyl)-7-fluoro-N-(3-fluoro-2-(4,4,4-trifluoro-3,3-dimethylbut-1-yn-1-yl)pyridin-4-yl)-[1,2,4]triazolo[4,3-a]quinazolin-5-amine] | 18 | 3.9
7 | COCCN(c1cc(F)cc(C#CC2(C(F)(F)F)CC2)c1)c1nc2nncn2c2cccc(F)c12 [Example 98, 6-fluoro-N-(3-fluoro-5-((1-(trifluoromethyl)cyclopropyl)ethynyl)phenyl)-N-(2-methoxyethyl)-[1,2,4]triazolo[4,3-a]quinazolin-5-amine] | 84.7 | 18.8
8 | CC1(C#Cc2cncc3c2CCCN3c2nc3nncn3c3ccc(F)c(F)c23)CC1 [Example 99, 6,7-difluoro-5-(5-((1-methylcyclopropyl)ethynyl)-3,4-dihydro-1,7-naphthyridin-1(2H)-yl)-[1,2,4]triazolo[4,3-a]quinazoline] | 7.4 | 0.483
9 | CC(C)(C#Cc1cncc2c1CCCN2c1nc2nncn2c2ccc(F)c(F)c12)C(F)(F)F [Example 100, 6,7-difluoro-5-(5-(4,4,4-trifluoro-3,3-dimethylbut-1-yn-1-yl)-3,4-dihydro-1,7-naphthyridin-1(2H)-yl)-[1,2,4]triazolo[4,3-a]quinazoline] | 6.22 | 0.122
10 | CC(C)(C)C#Cc1cc(N(CC(F)F)c2nc3nncn3c3ccc(F)cc23)ccn1 [Example 101, N-(2,2-difluoroethyl)-N-(2-(3,3-dimethylbut-1-yn-1-yl)pyridin-4-yl)-7-fluoro-[1,2,4]triazolo[4,3-a]quinazolin-5-amine] | 5.56 | 4.69
11 | CC1(C#Cc2cc(N(CC(F)F)c3nc4nncn4c4ccc(F)cc34)ccn2)CC1 [Example 102, N-(2,2-difluoroethyl)-7-fluoro-N-(2-((1-methylcyclopropyl)ethynyl)pyridin-4-yl)-[1,2,4]triazolo[4,3-a]quinazolin-5-amine] | 3.8 | 2.81
12 | Fc1ccc2c(c1)c(N(CC(F)F)c1ccnc(C#CC3(C(F)(F)F)CC3)c1)nc1nncn12 [Example 103, N-(2,2-difluoroethyl)-7-fluoro-N-(2-((1-(trifluoromethyl)cyclopropyl)ethynyl)pyridin-4-yl)-[1,2,4]triazolo[4,3-a]quinazolin-5-amine] | 5.13 | 2.27
13 | Cc1nnc2nc(N(CC(F)F)c3cc(F)cc(C#CC(C)(C)O)c3)c3c(F)cc(Cl)cc3n12 [Example 104, 4-(3-((8-chloro-6-fluoro-1-methyl-[1,2,4]triazolo[4,3-a]quinazolin-5-yl)(2,2-difluoroethyl)amino)-5-fluorophenyl)-2-methylbut-3-yn-2-ol] | 8.06 | 8.95
14 | Cc1cc(F)cc2c(N(CC(F)F)c3cc(F)cc(C#CC(C)(C)O)c3)nc3nncn3c12 [Example 105] | 30.6 | 27.1
15 | Cc1cc(F)cc2c(N(CC(F)F)c3cc(F)cc(C#CC4(C(F)(F)F)CC4)c3)nc3nncn3c12 [Example 106] | 118 | 2.53
16 | Cc1cccc2c(N3CCOCc4c(C#CC5(C(C)(F)F)CC5)cccc43)nc3nncn3c12 [Example 107] | 39.9 | 3.21
17 | Cc1nnc2nc(N3CCOCc4c(C#CC5CC5)cccc43)c3cc(C#N)ccc3n12 [Example 108] | 4.69 | 2.84
18 | Cc1nnc2nc(N3CCOCc4c(C#CC5(C)CC5)cccc43)c3cc(C#N)ccc3n12 [Example 109] | 7.3 | 1.67
19 | CC(C)(O)C#Cc1cccc2c1CCCCN2c1nc2nncn2c2c(F)ccc(F)c12 [Example 110] | 2.76 | 9.8
20 | CC(C)(O)C#Cc1cccc2c1COCCN2c1nc2nncn2c2c(F)ccc(F)c12 [Example 111] | 6.5 | 45.8

Row | SMILES | IC50 (human DGKα) [nM] | EC50 [1] [nM]
21 | Fc1ccc(F)c2c1c(N1CCOCc3c(C#CC4(C(F)(F)F)CC4)cccc31)nc1nncn12 [Example 112] | 3.48 | 0.716
22 | CC1(C#Cc2cccc3c2COCCN3c2nc3nncn3c3c(F)ccc(F)c23)CC1 [Example 113] | 1.44 | 0.9
23 | CC(C)(O)C#Cc1cc(F)cc2c1CCCN2c1nc2nncn2c2c(F)cc(F)cc12 [Example 114] | 6.76 | 12.5
24 | Cc1nnc2nc(N3CCCOc4c(C#CC5(C(C)(F)F)CC5)cccc43)c3c(F)c(F)ccc3n12 [Example 115] | 32.8 | 2.37
25 | Cc1nnc2nc(N3CCCOc4c(C#CC5CC5)cccc43)c3c(F)c(F)ccc3n12 [Example 116] | 5.19 | 1.07
26 | CC1(C#Cc2cccc3c2CCCN3c2nc3nncn3c3c(F)ccc(F)c23)CC1 [Example 117] | 14.8 | 1.32
27 | Fc1cc(F)c2c(c1)c(N1CCCc3c(C#CC4(C(F)(F)F)CC4)cccc31)nc1nncn12 [Example 118] | 4.89 | 5.81
28 | Fc1cc(F)c2c(c1)c(N1CCCc3c(C#CC4(C(F)F)CC4)cccc31)nc1nncn12 [Example 119] | 2.13 | 2.86
29 | CC(C)(O)C#Cc1cccc2c1CCCN2c1nc2nncn2c2c(F)cc(F)cc12 [Example 120] | 4.99 | 12.3
30 | Fc1cccc2c1c(N1CCCOc3c(C#CC4(C(F)(F)F)CC4)cccc31)nc1nncn12 [Example 121] | 22.8 | 4.95
31 | Cc1nnc2nc(N3CCCOc4c(C#CC5(C)CC5)cccc43)c3c(F)c(F)ccc3n12 [Example 122] | 5.27 | 2.63
32 | CC(C)(C#Cc1cccc2c1OCCCN2c1nc2nncn2c2cccc(F)c12)C(F)(F)F [Example 123] | 31.5 | 0.533
33 | CC(C)(C#Cc1cccc2c1COCCN2c1nc2nnc(N)n2c2cccc(F)c12)C(F)(F)F [Example 124, 6-fluoro-5-(6-(4,4,4-trifluoro-3,3-dimethylbut-1-yn-1-yl)-2,3-dihydrobenzo[e][1,4]oxazepin-1(5H)-yl)-[1,2,4]triazolo[4,3-a]quinazolin-1-amine] | 16.8 | 0.781
34 | Cc1nnc2nc(N3CCCc4c(C#CC(C)(C)C#N)cccc43)c3c(Cl)cccc3n12 [Example 125, 4-(1-(6-chloro-1-methyl-[1,2,4]triazolo[4,3-a]quinazolin-5-yl)-1,2,3,4-tetrahydroquinolin-5-yl)-2,2-dimethylbut-3-ynenitrile] | 16.4 | 2.9
35 | Cc1nnc2nc(N3CCCc4c(C#CC5(C(F)F)CC5)cccc43)c3c(Cl)cccc3n12 [Example 126, 6-chloro-5-(5-((1-(difluoromethyl)cyclopropyl)ethynyl)-3,4-dihydroquinolin-1(2H)-yl)-1-methyl-[1,2,4]triazolo[4,3-a]quinazoline] | 17.2 | 1.16
36 | CC1(C#Cc2cccc3c2COCCN3c2nc3nnc(N)n3c3cccc(F)c23)CC1 [Example 127] | 8.42 | 2.02
37 | Cc1nnc2nc(N(CC(F)F)c3cc(F)cc(-c4ccc(C(C)(C)O)cc4)c3)c3c(F)cccc3n12 [Example 128, 2-(3′-((2,2-difluoroethyl)(6-fluoro-1-methyl-[1,2,4]triazolo[4,3-a]quinazolin-5-yl)amino)-5′-fluoro-[1,1′-biphenyl]-4-yl)propan-2-ol] | 20.8 | 7.48
38 | Cc1nnc2nc(N3CCCc4c(C#CC5CCCCO5)cccc43)c3c(F)cccc3n12 (stereo not drawn) [Example 129, 6-fluoro-1-methyl-5-(5-((tetrahydro-2H-pyran-2-yl)ethynyl)-3,4-dihydroquinolin-1(2H)-yl)-[1,2,4]triazolo[4,3-a]quinazoline] | 7.55 | 1.22
39 | Cc1nnc2nc(N3CCCc4c(C#CC5CCCCO5)cccc43)c3cc(F)ccc3n12 (stereo not drawn) [Example 130, 7-fluoro-1-methyl-5-(5-((tetrahydro-2H-pyran-2-yl)ethynyl)-3,4-dihydroquinolin-1(2H)-yl)-[1,2,4]triazolo[4,3-a]quinazoline] | 4.19 | 1.98
